Measured values from patent publication US9845292B2 (Max-Planck-Gesellschaft zur Förderung der Wissenschaften …, priority 2013, dated 2017).
Like-named read-outs stand apart in the source and are kept apart here.

How the values were obtained:
N2a neuroblastoma cells = experiment: N2a cellular assay (neurite outgrowth); type: cell-based; conditions: for optimal concentration for enhancement of neurite outgrowth: U-shaped dose-dependency, N2a-cells
Method: At day one N2a cells were plated into 24-well plates with cover slips (pretreated with polylysine) at a density of 35,000 cells/well and cultured with DMEM (incl. FCS 10% and Pen/Strep 1%) for 24 h. Next, cells were transfected with 80 ng expression plasmids encoding Venus as well as 720 ng pRK5 (mock transfection) in a total volume of 500 μl starvation media containing different concentrations of compounds or DMSO for 36 h (media without FCS; induction of neurite outgrowth). Therefore media was removed and replaced by 400 μl DMEM (empty). Next an equivalent volume of plasmids were given to 50 μl OPTIMEM and incubated for 5 min at RT. Additionally 1.5 μl Lipofectamine 2000 was separately dissolved in 50 μl OPTIMEM. After 5 min both solutions (plasmids and Lipofactamine 2000 containing media) were combined and incubated again for another 20 min. After that 100 μl of this mixture was given to 400 μl media per well. (See also protocol of the provider—Life Technologies).
On the next day cells were washed with PBS and incubated for 30 min with 300 μl PFA (4%) and sucrose (5%) to fix cells. After fixation cells were washed three times, mounted onto microscope slides using 4 μl Vectashield (mounting media) and analyzed by fluorescence microscopy. Each bar represents the mean of the neurite length of 30-50 cells after the indicated treatment (FIGS. 1-2).

FKBP52 = molecular target: T1, FKBP52 (Homo sapiens, UniProt Q02790); experiment: Fluorescence polarization binding assay, FK1-domain of FKBP52WT with tracer F2 (selectivity FKBP51 vs. FKBP52); conditions: selectivity factor over FKBP52
T1 construct: Purified FK1-domains of FKBP51WT (4.5 nM) with F4 (3 nM), FKBP52WT (400 nM) with F2 (20 nM); implied by Ni-NTA purification) (N); made in house; host or cells: E. coli BL21(DE3)pLysS
T1 sequence (Q02790 50-138 limits assumed): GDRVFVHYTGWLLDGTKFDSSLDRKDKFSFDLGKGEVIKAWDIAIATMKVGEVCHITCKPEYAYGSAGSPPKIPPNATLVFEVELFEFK
Summary of the method: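 Compounds titrated against FK1 domain of FKBP52 WT with fluorescent tracer F2, in duplicate; competition curves fitted to four-parameter logistic for IC50. Ki derived from exact competitive-binding equation using tracer Kd; selectivity expressed as Ki(FKBP51)/Ki(FKBP52).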

FKBP51 = molecular target: T2, FKBP51 (Homo sapiens, UniProt Q13451); experiment: Fluorescence polarization binding assay, FK1-domain of FKBP51WT with tracer F4; parameters: Purified FK1-domains of FKBP51WT (4.5 nM) with F4 (3 nM), FKBP52WT (400 nM) with F2 (20 nM); made in house; host or cells: E. coli BL21(DE3)pLysS; conditions: read-out: Affinity(Ki) for FKBP51
T2 sequence (Q13451 42-130 limits assumed): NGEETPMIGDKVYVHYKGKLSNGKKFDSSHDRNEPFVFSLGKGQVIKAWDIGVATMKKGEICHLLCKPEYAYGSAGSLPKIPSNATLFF
Summary of the method: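 Competitive fluorescence polarization with tracer F4 and FKBP51 FK1 domain (wild type), compounds titrated by serial dilution from DMSO stock, run in duplicate. IC50 from four-parameter logistic fit; inhibition constants from an exact competitive-binding equation using tracer and inhibitor Kd values.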

[1] = FKBP52WT (400 nM) with F2 (20 nM), A series
[2] = FK1-domain of FKBP51WT (4.5 nM) with F4 (3 nM), A series

Ki(FKBP51)/Ki(FKBP52) (FKBP52; compounds B01-C25) | Ki (FKBP51; compounds B01-C25) | SMILES | also measured
 |  | C[C@]12CCC(=O)C=C1CC[C@@H]1[C@@H]2[C@@H](O)C[C@]2(C=O)[C@@H](C(=O)CO)CC[C@@H]12 [Aldosterone, reference compound] | optimal concentration for enhancement of neurite outgrowth (N2a neuroblastoma cells): 100 nM
+++ (>500 +++) | 0.1 to 1 µM | COc1cc([C@@H](C(=O)N2CCCC[C@H]2C(=O)OC(C)C)C2CCCCC2)cc(OC)c1OC [Compound C04, (S)-isopropyl 1-((S)-2-cyclohexyl-2-(3,4,5-trimethoxyphenyl)acetyl)piperidine-2-carboxylate] | 
++ (>50 ++) | 10 to 50 µM | CCNC(=O)[C@@H]1CCCCN1C(=O)[C@H](c1cc(OC)c(OC)c(OC)c1)C1CCCCC1 [Compound C05, (S)-1-((S)-2-cyclohexyl-2-(3,4,5-trimethoxyphenyl)acetyl)-N-ethylpiperidine-2-carboxamide] | 
+ (>5 +) | 10 to 50 µM | COc1cc([C@@H](C(=O)N2CCCC[C@H]2C(=O)O)C2CCCCC2)cc(OC)c1OC [Compound C06, (S)-1-((S)-2-cyclohexyl-2-(3,4,5-trimethoxyphenyl)acetyl)piperidine-2-carboxylic acid] | 
++ (>50 ++) | 10 to 50 µM | CC[C@H](C)OC(=O)[C@@H]1CCCCN1C(=O)[C@H](c1cc(OC)c(OC)c(OC)c1)C1CCCCC1 [Compound C07, (S)-(S)-sec-butyl-1-((S)-2-cyclohexyl-2-(3,4,5-trimethoxyphenyl)acetyl) piperidine-2-carboxylate] | 
++ (>50 ++) | 10 to 50 µM | CCC(CC)OC(=O)[C@@H]1CCCCN1C(=O)[C@H](c1cc(OC)c(OC)c(OC)c1)C1CCCCC1 [Compound C09, (S)-pentan-3-yl-1-((S)-2-cyclohexyl-2-(3,4,5-trimethoxyphenyl)acetyl)piperidine-2-carboxylate] | 
+++ (>500 +++) | 1 to 10 µM | COc1cc([C@@H](C(=O)N2CCCC[C@H]2C(=O)OC(C)(C)C)C2CCCCC2)cc(OC)c1OC [Compound C10, (S)-tert-butyl-1-((S)-2-cyclohexyl-2-(3,4,5-trimethoxyphenyl)acetyl)piperidine-2-carboxylate] | 
+++ (>500 +++) | 1 to 10 µM | COc1cc([C@@H](C(=O)N2CCCC[C@H]2C(=O)OC2(C)CCCC2)C2CCCCC2)cc(OC)c1OC [Compound C11, (S)-1-methylcyclopentyl-1-((S)-2-cyclohexyl-2-(3,4,5-trimethoxyphenyl)acetyl) piperidine-2-carboxylate] | 
+++ (>500 +++) | 1 to 10 µM | COc1cc([C@@H](C(=O)N2CCCC[C@H]2C(=O)OC2CCOCC2)C2CCCCC2)cc(OC)c1OC [Compound C12, (S)-tetrahydro-2H-pyran-4-yl-1-((S)-2-cyclohexyl-2-(3,4,5-trimethoxyphenyl)acetyl)piperidine-2-carboxylate] | 
+++ (>500 +++) | 1 to 10 µM | COc1cc([C@@H](C(=O)N2CCCC[C@H]2C(=O)OC2CCCC2)C2CCCCC2)cc(OC)c1OC [Compound C13, (S)-cyclopentyl-1-((S)-2-cyclohexyl-2-(3,4,5-trimethoxyphenyl)acetyl)piperidine-2-carboxylate] | 
+++ (>500 +++) | 1 to 10 µM | COc1cc([C@@H](C(=O)N2CCCC[C@H]2C(=O)OC2CC=CC2)C2CCCCC2)cc(OC)c1OC [Compound C14, (S)-cyclopent-3-en-1-yl-1-((S)-2-cyclohexyl-2-(3,4,5-trimethoxyphenyl)acetyl) piperidine-2-carboxylate] | 
++ (>50 ++) | 10 to 50 µM | COc1cc([C@@H](C(=O)N2CCCC[C@H]2C(=O)OC2CCCCCC2)C2CCCCC2)cc(OC)c1OC [Compound C16, (S)-cycloheptyl-1-((S)-2-cyclohexyl-2-(3,4,5-trimethoxyphenyl)acetyl)piperidine-2-carboxylate] | 
++ (>50 ++) | 10 to 50 µM | C=CCOC(=O)[C@@H]1CCCCN1C(=O)[C@H](c1cc(OC)c(OC)c(OC)c1)C1CCCCC1 [Compound C17, (S)-allyl-1-((S)-2-cyclohexyl-2-(3,4,5-trimethoxyphenyl)acetyl)piperidine-2-carboxylate] | 
++ (>50 ++) | 1 to 10 µM | COCCOC(=O)[C@@H]1CCCCN1C(=O)[C@H](c1cc(OC)c(OC)c(OC)c1)C1CCCCC1 [Compound C18, (S)-2-methoxyethyl-1-((S)-2-cyclohexyl-2-(3,4,5-trimethoxyphenyl)acetyl) piperidine-2-carboxylate] | 
++ (>50 ++) | 1 to 10 µM | COc1cc([C@@H](C(=O)N2CCCC[C@H]2C(=O)OCCOCc2ccccc2)C2CCCCC2)cc(OC)c1OC [Compound C19, (S)-2-(benzyloxy)ethyl-1-((S)-2-cyclohexyl-2-(3,4,5-trimethoxyphenyl)acetyl) piperidine-2-carboxylate] | 
+++ (>500 +++) | 1 to 10 µM | COc1cc([C@@H](C(=O)N2CCCC[C@H]2C(=O)OCCO)C2CCCCC2)cc(OC)c1OC [Compound C20, (S)-2-hydroxyethyl-1-((S)-2-cyclohexyl-2-(3,4,5-trimethoxyphenyl)acetyl)piperidine-2-carboxylate] | 
++ (>50 ++) | 1 to 10 µM | COc1cc([C@@H](C(=O)N2CCCC[C@H]2C(=O)OCCCOCc2ccccc2)C2CCCCC2)cc(OC)c1OC [Compound C21, (S)-3-(benzyloxy)propyl-1-((S)-2-cyclohexyl-2-(3,4,5-trimethoxyphenyl)acetyl) piperidine-2-carboxylate] | 
+++ (>500 +++) | 1 to 10 µM | COCCCCOC(=O)[C@@H]1CCCCN1C(=O)[C@H](c1cc(OC)c(OC)c(OC)c1)C1CCCCC1 [Compound C23, (S)-4-methoxybutyl-1-((S)-2-cyclohexyl-2-(3,4,5-trimethoxyphenyl)acetyl) piperidine-2-carboxylate] | 
+++ (>500 +++) | 1 to 10 µM | COc1cc([C@@H](C(=O)N2CCCC[C@H]2C(=O)O[C@H](C)COCc2ccccc2)C2CCCCC2)cc(OC)c1OC [Compound C24] | 
 |  | C=CC[C@@H]1/C=C(\C)C[C@H](C)C[C@H](OC)[C@H]2O[C@@](O)(C(=O)C(=O)N3CCCC[C@H]3C(=O)O[C@H](/C(C)=C/[C@@H]3CC[C@@H](O)[C@H](OC)C3)[C@H](C)[C@@H](O)CC1=O)[C@H](C)C[C@@H]2OC [FK506, reference compound] | concentrations at which the neurite outgrowth stimulating effect is lost (N2a neuroblastoma cells; FIG. 1B): 300 to 1000 nM
 |  | C=CC[C@H](C(=O)N1CCCC[C@H]1C(=O)O[C@H](CCc1ccc(OC)c(OC)c1)c1cccc(OCC(=O)O)c1)c1cc(OC)c(OC)c(OC)c1 [Reference A01, 2-(3-((R)-3-(3,4-Dimethoxyphenyl)-1-(((S)-1-((S)-2-(3,4,5-trimethoxyphenyl)pent-4-enoyl)piperidine-2-carbonyl)oxy)propyl)phenoxy)acetic acid] | Ki(FKBP51)/Ki(FKBP52) (FKBP52; [1]): not selective (<5 not selective); Ki (FKBP51; [2]): 10 to 50 µM
 |  | COc1ccc(CC[C@@H](OC(=O)[C@@H]2CCCCN2C(=O)[C@@H](CC2CC2)c2cc(OC)c(OC)c(OC)c2)c2cccc(OCC(=O)O)c2)cc1OC [Reference A07, 2-(3-((R)-1-(((S)-1-((S)-3-cyclopropyl-2-(3,4,5-trimethoxyphenyl)propanoyl)piperidine-2-carbonyl)oxy)-3-(3,4-dimethoxyphenyl)propyl)phenoxy)acetic acid] | Ki(FKBP51)/Ki(FKBP52) (FKBP52; [1]): not selective (<5 not selective); Ki (FKBP51; [2]): 10 to 50 µM
 |  | CC#C[C@]1(O)CC[C@H]2[C@@H]3C=CC4=CC(=O)C=C[C@]4(C)[C@H]3[C@@H](O)C[C@@]21C [Ru26988, RU26988, reference compound] | optimal concentration for enhancement of neurite outgrowth (N2a neuroblastoma cells): 100 nM
